The source of these data is patent US9175016B2, “Prochelators useful for inhibiting metal-associated toxicity” (Duke University, priority 2009, dated 2015).

The conditions of data set [1]: preliminary investigations. From the text:
Quinoline boronic acid (QBA) is commercially available. […] In order to prevent premature metal binding, it was therefore necessary to form a boronic ester.

Data set [2] has as its system Aβ. Nature of the data set: Turbidity (light scattering) assay of metal-induced Aβ aggregation. It counts as biochemical. As to the method:
FIG. 4. […] Samples, which contain various combinations of 10 μM Aβ, 10 μM Cu(Gly)2, 10 μM ZnCl2, 10 or 20 μM 8HQ, 20 or 100 μM QBA, 20 or 100 μM QBP, as indicated on the graph, were incubated in a 96 well plate at 37° C. Total volume per well was made up to 200 μL with Hepes buffer. Abs readings were taken 64 min after mixing (diagonal hashed bars). After one hour incubation, 1 mM H2O2 was added to each well and Abs readings were taken after 30 min (horizontal striped bars). Error bars represent the variability of triplicate measurements.

Data set [3] in a line: UV-vis spectra of oxidation and Cu2+ binding by QBP. The note with it: 100 μM QBP. As to the method: FIG. 2. Oxidation and Cu^2+ binding by QBP. 100 μM QBP and 50 μM Cu(Gly)2 were incubated in PBS buffer pH 7.4. After one hour, 4 mM H2O2 was added. After 60 min, oxidation and Cu binding were complete. Resulting spectrum is nearly identical to 8HQ-Cu spectra.
With the phenol of 8HQ masked by the pinanediol boronic ester, the QBP prochelator should have little to no affinity for metal ions.

Data set [4] relates to Aβ. Nature of the data set: UV-vis analysis of H2O2-treated Aβ samples. It counts as biochemical. The following applies: samples containing Aβ/Cu/QBP/H2O2. From the text:
FIG. 5. UV-vis analysis of H2O2-treated Aβ samples. The samples are the same ones as in FIG. 4.
Further confirmation that Cu(8HQ)2 is, indeed, generated in the reaction of Aβ/Cu/QBP/H2O2 described in FIG. 4 comes from the UV-vis spectrum of the reaction mixture, shown in FIG. 5.
(§1) The complex [Cu(8HQ)2] has a characteristic absorbance band at 375 nm, which is clearly visible in samples that contain Aβ, Cu^2+ and 8HQ. […] Mass spectral analysis of the sample gives m/z of 352, further confirming formation of [Cu(8HQ)2] in these complex mixtures. The previous experiment contained a relatively high concentration (1 mM) of H2O2 that was added in a single bolus. Several groups have shown that combinations of Aβ, Cu and reductants produce significant amounts of H2O2 from O2. Therefore, to investigate whether these conditions of more biologically relevant H2O2 production are sufficient for activating QPB, samples of Aβ, Cu^2+ (provided as Cu(Gly)2), ascorbic acid, and either 8HQ or QBP were monitored for H2O2 production with the Amplex Red assay. […] Samples that contain Cu and ascorbate (with or without Aβ) provide just over 300 nM detectable H2O2. […] When 8HQ is present at a 2:1 ratio to Cu, the amount of detectable H2O2 diminishes to one third that detected in the presence of Aβ. […] When QBP is added to the reaction mixture in place of 8HQ, a similar result is obtained.

In data set [5] the test system is H2O2 production by Cu. As to the kind of experiment: Hydrogen peroxide detection by the Amplex Red/HRP assay (Aβ, Cu(Gly)2, ascorbic acid). It counts as biochemical. As to the method:
FIG. 6. Hydrogen peroxide detection by the Amplex Red/HRP assay for samples containing various combinations of 200 nm Aβ, 200 nm Cu(Gly)2, 10 μM ascorbic acid, 2-200 μM QBP, 50-400 nm 8HQ, in a total volume of 50 μL buffer (50 mM hepes, 150 mM NaCl). Samples were incubated at 37° C. for approximately 1 h before 50 μL of Amplex Red/HRP reagent was added. Fluorescence readings were taken with λex=485 and λem=590 nm.
as §1

Data set [6] can be described thus: Rate of conversion of QBP to 8HQ by H2O2 (pseudo first-order, spectrophotometric). It counts as physicochemical. The note with it: 100 μM QBP, PBS pH 7.4, 1-10 mM H2O2. The procedure:
FIG. 3. Plot of kobs at varying concentrations of H2O2 to obtain the rate constant k for the conversion of QBP to HQ. QBP was initially dissolved in a minimal amount of methanol and then diluted into PBS buffer, pH 7.4, to a final concentration of 100 μM. Spectra were taken immediately after addition of 1-10 mM H2O2; at least 40 spectra were collected before 50% conversion of prochelator to chelator. The change in absorbance at 273 nm was used to follow the reaction. The negative slope of the linear fit of ln(1−(A−Ao/Ao)) vs time gives the observed rate constant kobs. The slope of the line through data kobs vs [H2O2] provides k (M^−1 s^−1).
In order to determine the rate of conversion of QBP to 8HQ by H2O2 (Eq. 2), reactions were monitored spectrophotometrically under pseudo first-order conditions of excess H2O2. The observed rate constants (kobs) were plotted against peroxide concentration (FIG. 3) to give a rate constant k of 0.13 M^−1 s^−1. rate=k[QBP][H2O2] Eq. 2

Data set [7] in a line: Stability of QBP in aqueous solution (hydrolysis to QBA), monitored by UV-Vis and mass spectrometry. It is filed as physicochemical.

Turning to `OBO.c1ccc2ncccc2c1` [QBA, Quinoline boronic acid], the “interaction with metal ions” value in data set [1] is “interacts directly with metal ions”.
Turning to `CC1(C)C2CC3OB(c4cccc5cccnc45)OC3(C)C1C2` (stereo not shown) [QBP], the “turbidity of Aβ/Cu2+ samples after H2O2 addition” value in data set [2] (1 mM H2O2 added after one hour incubation, read 30 min later) is given as “significant decrease in turbidity”. Moreover, the “metal-induced Aβ aggregation” value in data set [2] (20 or 100 μM QBP, no H2O2) is listed as “does not interfere”. Also, in data set [3] (50 μM Cu(Gly)2, PBS pH 7.4, 4 mM H2O2), the “time after H2O2 addition at which oxidation and Cu binding were complete” value is recorded as 60 min. In data set [3] (50 μM Cu(Gly)2, PBS pH 7.4, 4 mM H2O2 added), the “spectrum after addition of H2O2” value is “matches that of [Cu(8HQ)2]”. Also, the “interaction with Cu2+ in prochelator form (UV-vis spectral change)” value in data set [3] (50 μM Cu(Gly)2, PBS pH 7.4, one hour, no H2O2) is recorded as “does not interact with Cu^2+”. In addition, in data set [4], the “formation of [Cu(8HQ)2] (absorbance band at 375 nm)” value is “[Cu(8HQ)2] has, indeed, been generated”. In addition, the “H2O2 detected relative to the concentration obtained in the absence of chelator” value in data set [5] (100 μM QBP with Cu, ascorbate and Aβ) is “a third”. For the same molecule, the H2O2 detected result in data set [5] (100 μM QBP with Cu, ascorbate and Aβ, 1-h incubation) is “about 100 nM”. In addition, the “rate constant k for conversion of QBP to 8HQ by H2O2” value in data set [6] was 0.13 M⁻¹ s⁻¹. Also, the “hydrolysis to QBA in aqueous solution” value is listed as “no signs of hydrolysis” in data set [7] (between pH 5-8, over the course of 10 h); “some hydrolysis to QBA was detected” in data set [7] (low and high pH values outside pH 5-8, mass spectrometry).
As to `Oc1cccc2cccnc12` [8HQ, 8-hydroxyquinoline, reference compound], the “copper-induced Aβ aggregation” value in data set [2] (2 equiv of 8HQ, 10 μM Aβ, 10 μM Cu(Gly)2, 37° C.) is on record as “completely inhibits”. For the same molecule, the “zinc-induced Aβ aggregation” value in data set [2] (2 equiv of 8HQ, 10 μM Aβ, 10 μM ZnCl2, 37° C.) is on record as “significantly reduces”. The “amount of detectable H2O2 relative to that detected in the presence of Aβ” value in data set [5] (8HQ at a 2:1 ratio to Cu) is listed as “one third”. Besides, in data set [5] (8HQ at a quarter of an equiv of Cu, 200 nM Cu(Gly)2, 200 nM Aβ, 10 μM ascorbic acid, 1-h incubation, pH 7.4), the H2O2 production entry is “inhibits H2O2 production”.
